# Reference: US8945540B2, “Compositions for enhancing the antibacterial activity of myeloperoxidase and methods of use thereof” (Exoxemis, Inc., priority 2008, dated 2015)
# Where two headings read alike, the source gives them in different places. Where a SMILES comes first, the peptide text is derived from it.
# How the values were obtained:
# Staphylococcus aureus [1] = assay: Microbicidal activity of the myeloperoxidase system (p-MPO, glucose oxidase, glucose) with amino acids in the presence of blood, CFU plate counts; synergy determination from these CFU; format: cell-based; details: for Average Viability CFU/ml 50 min / Log Reduction 50 min: MPO 4.7 U/ml, GO 4.2 U/ml; for Average Viability CFU/ml 60 min / Log 10 (CFU + 1) Survivors 60 min / Log Reduction 60 min: MPO 38 U/ml, GO 33.3 U/ml
# Description: Bacterial suspensions, specifically Staphylococcus aureus in this example, were prepared by the shake flask method to achieve late log to early stationary phase growth. Bacteria were grown 24 hours in trypticase soy broth (TSB) at 35° C. The cultures were centrifuged at 4,000 rpm for 10 minutes and the supernatants removed. The pellet was collected and washed twice with sterile 0.9% normal saline (NS). The washed microorganisms were suspended and diluted with normal saline to a 3 McFarland standard, i.e., approximately 10^9 bacteria colony forming units (CFU) per mL. Actual colony counts are confirmed by serial dilutions (10^−1 to 10^−5 or 10^−6) plated on TSA and incubated overnight at 35° C. To obtain an approximate final working target inoculum of 10^7 CFU/mL, 15 microliters of organisms per mL of final reaction mixture are used.
# Glucose oxidase (GO) from Aspergillus Niger was purchased from Biozyme, Inc., UK, Cat #GO3A, 270 U/mg). Porcine Myeloperoxidase (p-MPO) (Exoxemis, Inc., Little Rock, Ark. U.S.A., 375 U/mg). Sterile stock solutions of D-glucose and sodium chloride were prepared and used at a final concentration of 150 mM each. L-Lysine hydrochloride (Spectrum Chemical Cat #L1142) was prepared as a 100 mM stock solution. Catalase (Sigma, Cat #C-40) was prepared as a 1% stock solution in sterile 0.9% normal saline. Blood was collected by venipuncture and used as whole blood within the same day.
# Staphylococcus aureus were used to give a final target concentration of 2-3×10^7 CFU (7.4 log 10) per mL and venous whole blood was used to give a final concentration of 3%. Glucose was added to the reaction mixtures to a final concentration of 150 mM, which initiated the microbicidal reaction. The final volume of the reaction mixtures was 1 mL. The reactions were allowed to run from 30 minutes to 2 hours, as needed, at room temperature or at 37° C. in a dry bath. At the specified time points the reaction mixtures were treated with 100 microliters of a catalase solution, containing a minimum of 100 units/μL, to consume remaining peroxide and terminate the oxidative killing. Serial dilution plate counts were performed from the contents of each vial in sterile saline and inoculated onto trypticase soy agar (TSA) for quantitative culture. Plates were then incubated at 37° C. and counts taken at 24 hours. […] The results are shown in Table 1, as the average of 2 replicates.
# The amino acids alone, in the absence of MPO were tested to rule out their microbicidal activity. The results are shown in Table 2 to Table 6, as the average of 2 replicates.
# The amino acid analogues alone, in the absence of MPO, were tested to rule out their microbicidal activity. […]
# The effect of two-way combinations of individual amino acids with L-isoleucine, as potential enhancing agents, for MPO microbicidal action in the presence of blood, was therefore examined by following the procedure of Example 5.
# The Actual CFU observed for the pair is then divided by the Predicted CFU and multiplied by 100 to calculate the % of Predicted value. This value is then to be compared to the threshold value, discussed in the next section, to determine whether the pair are synergistic, antagonistic, or additive.
# Calculation of appropriate threshold values for determination of synergism and antagonism was based upon the variability of replicated CFU survivor measures.
# Staphylococcus aureus [2] = assay: Control: microbicidal activity of the amino acid or analogue alone (no glucose, MPO, glucose oxidase) in the presence of blood; format: cell-based; details: for log reduction at 5000 µM: Staphylococcus aureus, 1 h, read-out: Log Reduction 60 min
# Source text: As a control to determine the microbicidal activity of the amino acids alone, the foregoing procedure was followed without replication, except in the absence of glucose, MPO, and glucose oxidase.
# [3] = Table 19, amino acid (racemic, L- or D-form) 2.5 mM, 50 min
# [4] = Table 3, amino acid 5 mM (none: 0 mM), blood
# [5] = amino acid alone 5 mM, MPO 0, GO 0, no glucose, blood, without replication
# [6] = Table 4, amino acid 5 mM (none: 0 mM), blood
# [7] = MPO 100 μg/mL, AA 20 mM, 30 min
# [8] = MPO 100 μg/mL, AA 20 mM, 60 min
# [9] = Table 2, amino acid 5 mM (none: 0 mM), blood
# [10] = Table 10, single amino acid 2.5 mM, in the presence of blood, 50 min
# [11] = Table 13, single amino acid 2.5 mM, in the presence of blood, 50 min
# [12] = single amino acid 2.5 mM, blood
# [13] = Table 7, amino acid analogue 5 mM, blood
# [14] = amino acid analogue alone 5 mM, MPO 0, GO 0, no glucose, blood
# [15] = Table 11, single amino acid 2.5 mM, in the presence of blood, 50 min
smiles,measurement,setting,value
"CC(C)CC(N)C(=O)O (racemic) [d,l-Leucine]",Average Viability CFU/ml 50 min,Staphylococcus aureus [1]; [3],650000 CFU/ml
same,Log Reduction 50 min,Staphylococcus aureus [1]; [3],1.6
same,Predicted vs Actual,Staphylococcus aureus [1]; actual CFU as % of predicted value,310%
same,Predicted Average of Amino Acids,Staphylococcus aureus [1]; average of CFU of the individual D- and L-enantiomers,209500 CFU
same,Actual CFU,"Staphylococcus aureus [1]; racemic mixture, standard conditions of Example 5",650000 CFU
CC(=O)C(=O)O [Pyruvic acid],Average Viability CFU/ml 60 min,Staphylococcus aureus [1]; [4],4900000 CFU/ml
same,Log 10 (CFU + 1) Survivors 60 min,Staphylococcus aureus [1]; [4],6.7
same,Log Reduction 60 min,Staphylococcus aureus [1]; [4],0.6
same,log reduction at 5000 µM,Staphylococcus aureus [2]; [5],0
same,Average Viability CFU/ml 60 min,Staphylococcus aureus [2]; [5],22100000 CFU/ml
C[C@H](N)C(=O)N[C@@H](C)C(=O)O [L-Ala-L-ala] (H-Ala-Ala-OH),Average Viability CFU/ml 60 min,Staphylococcus aureus [1]; [6],238500 CFU/ml
same,Log Reduction 60 min,Staphylococcus aureus [1]; [6],2.0
same,Average Viability CFU/ml 60 min,Staphylococcus aureus [2]; [5],26100000 CFU/ml
same,Log Reduction 60 min,Staphylococcus aureus [2]; [5],0.0
NCC(=O)O [Glycine],Log 10 (CFU + 1) Survivors,"Staphylococcus aureus [1]; MPO 25 μg/mL, AA 5 mM, 30 min",7.2
same,Log 10 (CFU + 1) Survivors,"Staphylococcus aureus [1]; MPO 25 μg/mL, AA 5 mM, 60 min",6.8
same,Log 10 (CFU + 1) Survivors,"Staphylococcus aureus [1]; MPO 25 μg/mL, AA […], 30 min",7.3
same,Log 10 (CFU + 1) Survivors,"Staphylococcus aureus [1]; MPO 25 μg/mL, AA […], 60 min",6.9
same,Log 10 (CFU + 1) Survivors,"Staphylococcus aureus [1]; MPO 100 μg/mL, AA 5 mM, 30 min",6.0
same,Log 10 (CFU + 1) Survivors,"Staphylococcus aureus [1]; MPO 100 μg/mL, AA 5 mM, 60 min",0.0
same,Log 10 (CFU + 1) Survivors,Staphylococcus aureus [1]; [7],7.0
same,Log 10 (CFU + 1) Survivors,Staphylococcus aureus [1]; [8],0.0
same,Average Viability CFU/ml 60 min,Staphylococcus aureus [1]; [9],0 CFU/ml
same,Log 10 (CFU + 1) Survivors 60 min,Staphylococcus aureus [1]; [9],0.0
same,Log Reduction 60 min,Staphylococcus aureus [1]; [9],7.4
same,Average Viability CFU/ml 50 min,Staphylococcus aureus [1]; [10],9100 CFU/ml
same,Log Reduction 50 min,Staphylococcus aureus [1]; [10],3.4
same,Average Viability CFU/ml 50 min,Staphylococcus aureus [1]; [11],10050 CFU/ml
same,Log Reduction 50 min,Staphylococcus aureus [1]; [11],3.4
same,Average Viability CFU/ml 50 min,Staphylococcus aureus [1]; [12],7050 CFU/ml
same,Log Reduction 50 min,Staphylococcus aureus [1]; [12],3.5
same,"CFU survivors, amino acid acting separately",Staphylococcus aureus [1]; standard conditions of Example 5 (2.5 μmol/mL; MPO 4.7 U/mL; GO 4.2 U/mL),9300 CFU
same,log reduction at 5000 µM,Staphylococcus aureus [2]; [5],0
same,Average Viability CFU/ml 60 min,Staphylococcus aureus [2]; [5],25300000 CFU/ml
N[C@H](CCC(=O)O)C(=O)O [D-Glutamic acid],Average Viability CFU/ml 60 min,Staphylococcus aureus [1]; [6],955000 CFU/ml
same,Log Reduction 60 min,Staphylococcus aureus [1]; [6],1.4
same,log reduction at 5000 µM,Staphylococcus aureus [2],0
same,Average Viability CFU/ml 60 min,Staphylococcus aureus [2]; [5],26200000 CFU/ml
CC(N)CC(=O)O (stereo not drawn) [3-Aminobutanoic acid],Average Viability CFU/ml 60 min,Staphylococcus aureus [1]; [13],9 CFU/ml
same,Log Reduction 60 min,Staphylococcus aureus [1]; [13],6.4
same,log reduction at 5000 µM,Staphylococcus aureus [2]; [14],0
same,Average Viability CFU/ml 60 min,Staphylococcus aureus [2]; [14],21300000 CFU/ml
C[C@H](O)[C@@H](N)C(=O)O [D-Threonine],Log 10 (CFU + 1) Survivors,"Staphylococcus aureus [1]; MPO 25 μg/mL, AA 5 mM, 30 min",7.3
same,Log 10 (CFU + 1) Survivors,"Staphylococcus aureus [1]; MPO 25 μg/mL, AA 5 mM, 60 min",6.8
same,Log 10 (CFU + 1) Survivors,"Staphylococcus aureus [1]; MPO 25 μg/mL, AA […], 30 min",7.3
same,Log 10 (CFU + 1) Survivors,"Staphylococcus aureus [1]; MPO 25 μg/mL, AA […], 60 min",6.7
same,Log 10 (CFU + 1) Survivors,"Staphylococcus aureus [1]; MPO 100 μg/mL, AA 5 mM, 30 min",7.1
same,Log 10 (CFU + 1) Survivors,"Staphylococcus aureus [1]; MPO 100 μg/mL, AA 5 mM, 60 min",5.1
same,Log 10 (CFU + 1) Survivors,Staphylococcus aureus [1]; [7],7.4
same,Log 10 (CFU + 1) Survivors,Staphylococcus aureus [1]; [8],5.0
same,Average Viability CFU/ml 60 min,Staphylococcus aureus [1]; [4],815000 CFU/ml
same,Log 10 (CFU + 1) Survivors 60 min,Staphylococcus aureus [1]; [4],5.9
same,Log Reduction 60 min,Staphylococcus aureus [1]; [4],1.4
same,Average Viability CFU/ml 50 min,Staphylococcus aureus [1]; [15],2020000 CFU/ml
same,Log Reduction 50 min,Staphylococcus aureus [1]; [15],1.1
same,log reduction at 5000 µM,Staphylococcus aureus [2]; [5],0
same,Average Viability CFU/ml 60 min,Staphylococcus aureus [2]; [5],20700000 CFU/ml
C[C@@H](O)[C@H](N)C(=O)O [L-Threonine],Log 10 (CFU + 1) Survivors,"Staphylococcus aureus [1]; MPO 25 μg/mL, AA 5 mM, 30 min",7.3
same,Log 10 (CFU + 1) Survivors,"Staphylococcus aureus [1]; MPO 25 μg/mL, AA 5 mM, 60 min",7.1
same,Log 10 (CFU + 1) Survivors,"Staphylococcus aureus [1]; MPO 25 μg/mL, AA […], 30 min",7.3
same,Log 10 (CFU + 1) Survivors,"Staphylococcus aureus [1]; MPO 25 μg/mL, AA […], 60 min",6.7
same,Log 10 (CFU + 1) Survivors,"Staphylococcus aureus [1]; MPO 100 μg/mL, AA 5 mM, 30 min",7.1
same,Log 10 (CFU + 1) Survivors,"Staphylococcus aureus [1]; MPO 100 μg/mL, AA 5 mM, 60 min",5.5
same,Log 10 (CFU + 1) Survivors,Staphylococcus aureus [1]; [7],7.3
same,Log 10 (CFU + 1) Survivors,Staphylococcus aureus [1]; [8],7.3
same,Average Viability CFU/ml 60 min,Staphylococcus aureus [1]; [9],630000 CFU/ml
same,Log 10 (CFU + 1) Survivors 60 min,Staphylococcus aureus [1]; [9],5.8
same,Log Reduction 60 min,Staphylococcus aureus [1]; [9],1.6
same,Average Viability CFU/ml 50 min,Staphylococcus aureus [1]; [11],1415000 CFU/ml
same,Log Reduction 50 min,Staphylococcus aureus [1]; [11],1.2
same,log reduction at 5000 µM,Staphylococcus aureus [2]; [5],0
same,Average Viability CFU/ml 60 min,Staphylococcus aureus [2]; [5],23300000 CFU/ml
